Assay results taken from ChEMBL document CHEMBL4342522 (J Med Chem, 2020).
The source made the active and inactive calls. The calls are words filed in the database; no cut-off is given here.

Columns and labels:
SKM-1 [1] = assay: Antitumor activity against human SKM1 cells xenografted in SCID mouse assessed as tumor growth inhibition at 60 mg/kg, po bid by caliper method; format: functional, organism-based
[2] = Unbound hepatic clearance in rat liver microsomes; format: ADME, Microsome
[3] = Permeability in dog MDCK cells by PAMPA; format: ADME, cell-based, Canis lupus familiaris; settings: read-out: permeability
[4] = Unbound hepatic clearance in human liver microsomes; format: ADME, Microsome
NCI-H1299 = assay: Antiproliferative activity against human H1299 cells assessed as reduction in cell viability after 5 days by CellTiter-Glo assay; format: functional, cell-based; settings: NCI-H1299, 120 h
[5] = biological target: T1, Bromodomain-containing protein 4 (Homo sapiens, UniProt O60885); assay: biochemical; format: cell-based
Description: Inhibition of human N-terminal His6 tagged BRD4 BD1 (57 to 168) residues expressed in Escherichia coli BL21(DE3) cells after 1 hr by TR-FRET assay

SKM-1 [6] = assay: Antiproliferative activity against human SKM1 cells assessed as reduction in cell viability after 5 days by CellTiter-Glo assay; format: functional, cell-based; settings: SKM-1, 120 h
[7] = Unbound hepatic clearance in mouse liver microsomes; format: ADME, Microsome
[8] = biological target: T1, Bromodomain-containing protein 4; assay: Inhibition of human N-terminal His6 tagged BRD4 BD2 (352 to 457) residues expressed in Escherichia coli BL21(DE3) cells after 1 hr by TR-FRET assay

Compound | inhibition (SKM-1 [1]) | CL free [2] | Papp [3] | CL free [4] | IC50 (NCI-H1299) | Ki [5] | IC50 (SKM-1 [6]) | CL free [7] | Ki [8]
CCS(=O)(=O)Nc1ccc(Oc2ccc(F)cc2F)c(-c2cn(C)c(=O)c3[nH]ccc23)c1 | Active | – | – | – | – | – | – | – | –
CCNC(=O)c1cc2c(-c3cc(S(=O)(=O)CC)ccc3Oc3c(C)cccc3Br)cn(C)c(=O)c2[nH]1 | – | 1350 mL/min/kg | 10.5 ×10⁻⁶ cm/s | 267 mL/min/kg | 730 nM | 45 nM | 9.8 nM | 1880 mL/min/kg | 1 nM
CCNC(=O)c1cc2c(-c3cc(C4(O)CCOCC4)ccc3Oc3c(C)cc(F)cc3C)cn(C)c(=O)c2[nH]1 | – | 817 mL/min/kg | 1.47 ×10⁻⁶ cm/s | 8670 mL/min/kg | 2100 nM | 300 nM | 6.7 nM | 1670 mL/min/kg | 1.2 nM
CCNC(=O)c1cc2c(-c3cc(S(=O)(=O)CC)ccc3Oc3ccccc3Cl)cn(C)c(=O)c2[nH]1 | – | 1200 mL/min/kg | 13.8 ×10⁻⁶ cm/s | 200 mL/min/kg | 340 nM | 6.5 nM | 3.3 nM | 1200 mL/min/kg | 0.5 nM
CCNC(=O)c1cc2c(-c3cc(S(=O)(=O)CC)ccc3Oc3ccc(F)cc3F)cn(C)c(=O)c2[nH]1 | – | 188 mL/min/kg | 3.18 ×10⁻⁶ cm/s | 50 mL/min/kg | 110 nM | 6.6 nM | 31 nM | < 103 mL/min/kg | 0.7 nM
CCNC(=O)c1cc2c(-c3cc(S(=O)(=O)CC)ccc3Oc3c(C)cccc3C(F)F)cn(C)c(=O)c2[nH]1 | – | 200 mL/min/kg | 15.2 ×10⁻⁶ cm/s | 75 mL/min/kg | 880 nM | 160 nM | 24 nM | 900 mL/min/kg | 2.1 nM
CCNC(=O)c1cc2c(-c3cc(S(=O)(=O)CC)ccc3-c3cccc4cc[nH]c34)cn(C)c(=O)c2[nH]1 | – | 233 mL/min/kg | 3.5 ×10⁻⁶ cm/s | 140 mL/min/kg | 3900 nM | 170 nM | 34 nM | 517 mL/min/kg | 0.9 nM
CCNC(=O)c1cc2c(-c3cc(S(=O)(=O)CC)ccc3Oc3c(C)cccc3C#N)cn(C)c(=O)c2[nH]1 | – | 1530 mL/min/kg | 15.3 ×10⁻⁶ cm/s | 683 mL/min/kg | 730 nM | 69 nM | 37 nM | 817 mL/min/kg | 3.2 nM
CCNC(=O)c1cc2c(-c3cc(S(=O)(=O)CC)ccc3Oc3c(C)cc(Cl)cc3C)cn(C)c(=O)c2[nH]1 | – | 1580 mL/min/kg | 1.46 ×10⁻⁶ cm/s | 783 mL/min/kg | 700 nM | 82 nM | 110 nM | 2000 mL/min/kg | 0.8 nM
Cc1cccc(C)c1Oc1ccc(C(C)(C)O)cc1-c1cn(C)c(=O)c2[nH]c(C(=O)NC(C)(C)C)cc12 | – | 3000 mL/min/kg | 1.26 ×10⁻⁶ cm/s | 783 mL/min/kg | 1400 nM | 220 nM | 14 nM | 4330 mL/min/kg | 1.1 nM
CCNC(=O)c1cc2c(-c3cc(S(=O)(=O)CC)ccc3-c3ccccc3C)cn(C)c(=O)c2[nH]1 | – | 350 mL/min/kg | 10.3 ×10⁻⁶ cm/s | 112 mL/min/kg | 2600 nM | 180 nM | 9.5 nM | 750 mL/min/kg | 1.1 nM
CCNC(=O)c1cc2c(-c3cc(NC(C)=O)ccc3Oc3c(C)cc(F)cc3C)cn(C)c(=O)c2[nH]1 | – | 250 mL/min/kg | 1.06 ×10⁻⁶ cm/s | 183 mL/min/kg | 1600 nM | 90 nM | 14 nM | 2330 mL/min/kg | 1.1 nM
CCNC(=O)c1cc2c(-c3cc(S(C)(=O)=O)ccc3Nc3c(C)cccc3C)cn(C)c(=O)c2[nH]1 | – | 433 mL/min/kg | 3.59 ×10⁻⁶ cm/s | 117 mL/min/kg | 3600 nM | 250 nM | 68 nM | 483 mL/min/kg | 4.3 nM
CCNC(=O)c1cc2c(-c3cc(NS(=O)(=O)CC)ccc3Oc3c(C)cccc3C)cn(C)c(=O)c2[nH]1 | – | 14700 mL/min/kg | 0.22 ×10⁻⁶ cm/s | 183 mL/min/kg | 300 nM | 17 nM | 1.7 nM | 1320 mL/min/kg | 0.8 nM
CNC(=O)c1cc2c(-c3cc(C(C)(C)O)ccc3Oc3c(C)cc(F)cc3C)cn(C)c(=O)c2[nH]1 | – | 167 mL/min/kg | 0.55 ×10⁻⁶ cm/s | 400 mL/min/kg | 1200 nM | 140 nM | 13 nM | 550 mL/min/kg | 1 nM
Cn1cc(-c2cc(S(C)(=O)=O)ccc2Oc2ccc(F)cc2F)c2cc(C(N)=O)[nH]c2c1=O | – | < 68.3 mL/min/kg | 2.4 ×10⁻⁶ cm/s | 76.7 mL/min/kg | 600 nM | 8.6 nM | 10 nM | < 120 mL/min/kg | 1.2 nM
CCN(C)C(=O)c1cc2c(-c3cc(S(C)(=O)=O)ccc3Oc3ccc(F)cc3F)cn(C)c(=O)c2[nH]1 | – | 282 mL/min/kg | 16 ×10⁻⁶ cm/s | 63.3 mL/min/kg | 390 nM | 13 nM | 56 nM | 288 mL/min/kg | 40 nM
CCNC(=O)c1cc2c(-c3cc(S(=O)(=O)CC)ccc3Oc3c(C)cccc3C(F)(F)F)cn(C)c(=O)c2[nH]1 | – | 200 mL/min/kg | 15.2 ×10⁻⁶ cm/s | 75 mL/min/kg | 1200 nM | 470 nM | 28 nM | 900 mL/min/kg | 5.8 nM
CCNC(=O)c1cc2c(-c3cc(NC(C)=O)ccc3Oc3c(C)cccc3C)cn(C)c(=O)c2[nH]1 | – | 667 mL/min/kg | 1.96 ×10⁻⁶ cm/s | 83.3 mL/min/kg | 730 nM | 76 nM | 3.5 nM | 2000 mL/min/kg | 0.5 nM
CCNC(=O)c1cc2c(-c3cc(C(C)(C)O)ccc3Oc3c(C)cccc3C)cn(C)c(=O)c2[nH]1 | – | 1080 mL/min/kg | 6.3 ×10⁻⁶ cm/s | 617 mL/min/kg | 1200 nM | 160 nM | 11 nM | 2830 mL/min/kg | 0.6 nM
CCNC(=O)c1cc2c(-c3cc(S(=O)(=O)CC)ccc3-n3ccc4cccc(C)c43)cn(C)c(=O)c2[nH]1 | – | 1550 mL/min/kg | 14.7 ×10⁻⁶ cm/s | 700 mL/min/kg | 1900 nM | 380 nM | 23 nM | 1830 mL/min/kg | 1.1 nM
Cc1cc(F)cc(C)c1Oc1ccc(C(C)(C)O)cc1-c1cn(C)c(=O)c2[nH]c(C(=O)NC3CC3)cc12 | – | 333 mL/min/kg | 1.13 ×10⁻⁶ cm/s | 800 mL/min/kg | 1900 nM | 230 nM | 6.2 nM | 3330 mL/min/kg | 0.5 nM
